From patent US8269010B2, “3-amino-pyridine derivatives for the treatment of metabolic disorders” (Piramal Healthcare Limited, priority 2006, dated 2012) come the findings set out here.

“And” between values parts separate entries of the source, which are not always exact repeats. Equal entries are not always repeated.

The test system of series [1] is genetically diabetic db/db BL/6J mice. Nature of the series: Screening in db/db BL/6J mice: reduction of plasma glucose levels. It is filed as in vivo. To be noted: 10 days. The protocol: The protocol was designed as in references. • 1.
The screening of compounds was based on their ability to reduce the plasma glucose levels in genetically diabetic db/db BL/6J mice.
Male db/db mice (obtained from the Animal House of Nicholas Piramal Research Centre, Goregaon, Mumbai, India) were used for this study (body weight in the range of 30-40 g and age is 6-8 weeks) and were kept eight per cage in individually ventilated cages at controlled temperature (22±1° C.) and humidity (45±5%). Food and water were provided ad libitum during their laboratory stay, except for four hours fasting prior to blood sample collection. 12 hours light and dark cycle was followed during the whole study period.
After 4 hours fasting blood samples were collected from mice. Mice showing plasma glucose levels between 300 to 500 mg/dl were divided in groups (8-10 per group) such that the mean plasma glucose levels and variation within the group, for each group, is nearly same. After grouping, mice in respective groups received treatment with 0.5% CMC vehicle, standard compound or test compounds for 10 days.
After 4 hours fasting, mice were anaesthetized using isoflurane (inhalation anesthetic), and blood samples were collected through the retro orbital plexus. Collected blood samples were centrifuged at 7000 rpm for 10 minutes at 4° C.; Separated plasma was used for estimation of plasma glucose using diagnostic kits (Diasys, Germany). Plasma glucose levels of treated groups were normalized with control group using the following formula, which accounted for the changes in control group.
Formula used for normalization was *:{1−[…]}×100.

Series [2] concerns insulin resistant adipocytes (3T3 L1). Nature of the series: In vitro model exhibiting insulin resistance (IR assay): 14C-2-deoxyglucose uptake. Particulars: glucose uptake; for fold induction at 10 µM: Mus musculus, dexamethasone-induced insulin resistant 3T3 L1 adipocytes, test compound 10 μM/mL, vehicle = 1.0, cut off 1.50 fold, read-out: Fold activity (fold activity over vehicle); for % of Rosiglitazone (comparison with Rosiglitazone): insulin resistant 3T3 L1 adipocytes, test compound 10 μM vs Rosiglitazone 0.1 μM. It is filed as cell-based. How it is done: The assay was designed as in the reference, British Journal of Pharmacology, 130, 351-58, 2000, the disclosure of which is incorporated by reference for the teaching of the assay. The solution of test compound (10 μM/mL) was prepared in DMSO. […] Differentiation into adipocytes was induced by the known methods as described below. (See, also, J. Biol. […] 3T3 L1 fibroblasts were seeded in 24- or 6-well plates at a density of 0.5−2×10^4 cells/well and were allowed to reach maximal confluency. The confluent fibroblasts were exposed to culture medium for 2 days. […] The mature adipocytes were exposed to dexamethasone, 100 nM added in ethanol, in culture medium and incubated for 2 days. […] The test compound was also present during this period. After 3-4 hours, the medium was aspirated and replaced with Kreb's Ringer phosphate (KRP) buffer at pH 7.4 and with human/porcine insulin, 200 nM. The cells were incubated for 30 minutes at 37° C. […] After exactly 5 minutes, the plates were transferred to ice trays and medium was rapidly aspirated. The cell layer was washed twice with ice-cold phosphate buffered saline, (PBS), pH 7.4. […] Non-specific glucose uptake was assayed in wells exposed to cytochalasin B, inhibitor of glucose transport. […] Statistical analysis was performed using unpaired t-test.

The next series concerns the target T1, Mouse PPARγ (Mus musculus, UniProt P37238).
T1 construct: endogenous in cells; host or cells: 3T3-L1 fibroblasts
T1 sequence (P37238 1-505): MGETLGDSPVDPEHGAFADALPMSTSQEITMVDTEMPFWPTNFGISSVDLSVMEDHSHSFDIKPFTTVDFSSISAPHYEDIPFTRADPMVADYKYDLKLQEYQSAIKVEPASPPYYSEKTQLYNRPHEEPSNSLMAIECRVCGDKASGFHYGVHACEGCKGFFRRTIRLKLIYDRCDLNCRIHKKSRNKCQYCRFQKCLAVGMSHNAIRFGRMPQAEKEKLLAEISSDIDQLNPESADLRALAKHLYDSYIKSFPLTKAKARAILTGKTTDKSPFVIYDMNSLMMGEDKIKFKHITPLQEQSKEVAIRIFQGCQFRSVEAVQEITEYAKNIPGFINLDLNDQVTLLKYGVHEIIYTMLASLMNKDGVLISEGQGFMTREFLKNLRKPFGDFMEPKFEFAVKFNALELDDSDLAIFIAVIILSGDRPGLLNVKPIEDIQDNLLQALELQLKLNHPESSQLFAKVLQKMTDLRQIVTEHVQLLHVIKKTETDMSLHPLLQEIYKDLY
Kind of series: Mouse PPARγ assay (TransAM PPARγ ELISA, 3T3-L1 fibroblasts). Particulars: test compound 50 μM, 72 hrs. It is filed as cell-based. The protocol:
The assay was designed as in the reference, Blood, 104(5), 1361-8, 2004, the disclosure of which is incorporated by reference for the teaching of the assay.
3T3-L1 fibroblasts were seeded in 6-well plates at a density of 4×10^4 cells/well and cultured in DMEM containing 10% calf serum. After 4-5 days, when the cells become confluent, each of test compound was added (from a 20 mM stock in DMSO) to the final concentration of 50 μM in DMEM supplemented with 10% FCS. […] The plates were incubated for 72 hrs at 37° C. in a CO2 incubator with fresh medium containing test substances added after first 48 hrs. After 72 hrs, the medium was removed; the cell layer was washed and processed for the PPARγ assay as per the instruction of the manufacturer (Active Motif, North America, California, USA). PPARγ activation was determined using 96-well ELISA assay as per the instruction manual (TransAM PPARγ. Active Motif, Cat 0.40196). Assay Readout was absorbance output from spectrophotometer for the mouse PPARγ assay. Luminescence data output was recorded for the human PPARγ assay.

The next series concerns db/db mice. Kind of series: Evaluation of lipid levels (dyslipidemia) in db/db mice. It is filed as in vivo. To be noted: oral bid 15 days. The protocol:
The assay was designed as in the reference, Metabolism, 49 (1), 22-31, 2000, the disclosure of which is incorporated by reference for the teaching of the assay. Seven groups of male db/db mice (8 animals per group) were used. […] Body weight was measured daily. On day 15, the animals were deprived of food for 4 hours after the last dose administration. Blood was collected at the end of the 4-hour period using heparinised capillaries by a retro-orbital puncture. Plasma samples were analyzed for glucose, triglyceride, cholesterol, using the autoanalyser.

Another series deals with T2, Human PPARγ (Homo sapiens, UniProt P37231).
T2 construct: Human full length PPARγ cDNA was cloned into pSG5 expression vector; expressed in transfected cells; host or cells: HEK293 cells
T2 sequence (P37231 1-505): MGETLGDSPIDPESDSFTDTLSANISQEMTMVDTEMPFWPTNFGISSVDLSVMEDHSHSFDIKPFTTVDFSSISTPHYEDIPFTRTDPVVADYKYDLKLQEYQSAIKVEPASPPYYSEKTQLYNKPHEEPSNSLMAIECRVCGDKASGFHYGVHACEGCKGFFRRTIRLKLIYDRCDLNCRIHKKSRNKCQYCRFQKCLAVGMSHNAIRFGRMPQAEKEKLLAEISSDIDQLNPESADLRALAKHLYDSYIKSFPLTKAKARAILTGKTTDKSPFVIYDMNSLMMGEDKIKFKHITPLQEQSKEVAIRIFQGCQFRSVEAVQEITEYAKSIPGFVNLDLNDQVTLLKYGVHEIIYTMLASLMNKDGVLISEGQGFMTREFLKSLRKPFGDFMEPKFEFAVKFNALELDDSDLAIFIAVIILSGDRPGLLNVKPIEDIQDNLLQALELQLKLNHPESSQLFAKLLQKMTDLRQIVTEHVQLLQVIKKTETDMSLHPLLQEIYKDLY
Nature of the series: Human PPARγ transactivation assay (luciferase reporter, HEK293 cells). It is filed as cell-based. Particulars: 48 hours. The protocol: The assay was designed as in the reference, Biochem. Biophys. Res. Comm. 175:865-871, 1991, the disclosure of which is incorporated by reference for the teaching of the assay. Human PPARγ activity was evaluated by transactivation using a luciferase reporter gene. The pBL-TK-luciferase reporter plasmid AOX-3×PPRE-TK-LUC contains three copies of the rat acyl CoA oxidase PPRE cloned upstream of the minimal herpes simplex virus thymidine kinase (TK) promoter. Human full length PPARγ cDNA was cloned into pSG5 expression vector (Stratagene, Lo Jolla, Calif.).
HEK293 cells were seeded in 24 well plates and grown in DMEM supplemented with 10% (v/v) FCS. After 24 hours, they were transfected with 100 ng of hPPARγ receptor and 300 ng of AOX-3×PPRE-LUC reporter construct per well using Fugen 6 transfection reagent (Roche, Indianapolis, Ind.). […] The control was 0.1% DMSO. After 48 hours, transactivation activity was determined by luciferase assay using Steady Glow reagent (Promega, Madison, Wis.).

The compound `O=S(=O)(Nc1cnc(Oc2cc3ccccc3cn2)c(Cl)c1)c1ccc(Cl)cc1Cl` [Example 1, 2,4-Dichloro-N-(5-chloro-6-(isoquinolin-3-yloxy)pyridin-3-yl)benzenesulfonamide] displayed a melting point of 203 to 205 °C. Besides, the “Normalization with control (plasma glucose)” value (“Normalization with control” for short) in series [1] (150 mpk od) was 43.2 ± 15.7. Also, in series [2], the fold induction at 10 µM turned out to be 2.41 ± 0.06 and the “% of Rosiglitazone (comparison with Rosiglitazone)” value was 78.75 ± 3.55%. For the same compound, the “PPARγ activity (% of rosiglitazone)” value at Mouse PPARγ was 12.4%. The “lowering lipid levels compared with Rosiglitazone” value in the series on db/db mice is given as “as efficacious as Rosiglitazone”. Further, the “reduction in cholesterol levels” value in the series with db/db mice (doses higher than 50 mpk) is on record as 26%. Besides, at Human PPARγ, the “PPARγ activity (% of rosiglitazone)” value is 23%.

Turning to `COc1ccc(S(=O)(=O)Nc2cnc(Oc3cnc4ccccc4c3)c(Cl)c2)cc1` [Example 26, N-(5-Chloro-6-(quinolin-3-yloxy)pyridin-3-yl)-4-methoxybenzenesulfonamide], in series [1] (100 mpk bid), the “Normalization with control” value was determined as 41.90 ± 3.84. Also, in series [2], the fold induction at 10 µM is 2.19 ± 0.09 and the “% of Rosiglitazone (comparison with Rosiglitazone)” value was found to be 66.48 ± 5.26%. In addition, the “PPARγ activity (% of rosiglitazone)” value on Human PPARγ turned out to be 19.3%.

With `COc1ccc(S(=O)(=O)Nc2cnc(Oc3cnc4ccccc4c3)c(Cl)c2)cc1OC` [Example 30, N-(5-Chloro-6-(quinolin-3-yloxy)pyridin-3-yl)-3,4-dimethoxybenzenesulfonamide], the “Normalization with control” value in series [1] (50 mpk bid) amounted to 76.2 ± 19.2. Besides, the fold induction at 10 µM in series [2] stood at 1.84 ± 0.02. The “PPARγ activity (% of rosiglitazone)” value at Mouse PPARγ is 8.18%.

With `O=S(=O)(Nc1cnc(Oc2cnc3ccccc3c2)c(Cl)c1)c1ccc(F)cc1F` [Example 34, N-(5-Chloro-6-(quinolin-3-yloxy)pyridin-3-yl)-2,4-difluorobenzenesulfonamide], in series [1] (50 mpk bid), the “Normalization with control” value amounted to 57.2 ± 19.1. For the same compound, in series [2], the fold induction at 10 µM came to 1.7 ± 0.08 and the “% of Rosiglitazone (comparison with Rosiglitazone)” value is listed as 43.59 ± 4.77%. Further, the “PPARγ activity (% of rosiglitazone)” value on Mouse PPARγ stood at 8.17%.

As for `CN(CCOc1ccc(CC2SC(=O)NC2=O)cc1)c1ccccn1` (centres unmarked) [Rosiglitazone, reference compound], in series [1] (Rosiglitazone 5 mpk bid), the “Normalization with control” value is 54.52 ± 4.92 and 107.9 ± 15.1 and 83.6 ± 12.8. Further, the “Normalization with control” value in series [1] (Rosiglitazone 10 mpk od) was 93.8 ± 22.7 and 55.0 ± 11.4. Also, in the series with db/db mice (Rosiglitazone 5 mpk), the “decrease in plasma triglyceride levels” value is listed as 40% and the “reduction in cholesterol levels” value was 27%.
